Source: patent US20260000736A1, “PURIFIED LACTOFERRIN COMPOSITIONS AND METHODS OF USE” (Lactea Therapeutics LLC, priority 2023, published 2026)
Where a SMILES comes first, the peptide text is derived from it. Bridges are numbered along the chain shown (N, C = ends). [ ]: non-standard residue; d: D form. The star is where a group is joined. Ileψ(thiazoline)Cys = CC[C@H](C)[C@H](N)C1=N[C@H](C(=O)*)CS1; dOrn = NCCC[C@@H](N)C(=O)O

What was measured:
SARS-CoV-2 = SARS-CoV-2 Cytopathic Effect (CPE) reduction assay in Vero E6 cells; format: cell-based; details: Severe acute respiratory syndrome coronavirus 2, Vero C1008, 72 h
[1] = tested on: pigs with dermatome wounds; assay: Pig dermatome wound healing model; format: in vivo; details: dermatome wounds 40×40 mm at a depth of 0.76 mm, topical treatment
Procedure: In a first assessment in a pig model setting, using a dermatome, six wounds were made on each pig with three on the left side and three on the right side of each pig covering a surface area of 40×40 mm at a depth of 0.76 mm. […] For each pig, the wounds on the left of the animal were treated while the wounds on the right wide were left as untreated controls. […] Standard of care was advised on by veterinarians with experience in dealing with wound management in a farm setting.

CCC(CC)COC(=O)[C@H](C)N[P@](=O)(OC[C@H]1O[C@@](C#N)(c2ccc3c(N)ncnn23)[C@H](O)[C@@H]1O)Oc1ccccc1 [Remdesivir, reference compound]
EC50 (SARS-CoV-2): 4.5 µM

CC[C@H](C)[C@H](N)C1=N[C@H](C(=O)N[C@@H](CC(C)C)C(=O)N[C@H](CCC(=O)O)C(=O)N[C@H](C(=O)N[C@H]2CCCCNC(=O)[C@H](CC(N)=O)NC(=O)[C@@H](CC(=O)O)NC(=O)[C@H](Cc3cnc[nH]3)NC(=O)[C@@H](Cc3ccccc3)NC(=O)[C@H]([C@@H](C)CC)NC(=O)[C@@H](CCCN)NC2=O)[C@@H](C)CC)CS1 [bacitracin, reference compound] ({Ileψ(thiazoline)Cys}-L[dE]IK[dOrn]I[dF]H[dD]N; lactam 4-C)
wound healing [1]: treated wounds were still open after one week
